In assay [1] the target is T1, human VR1 (Homo sapiens, UniProt Q8NER1).
T1 construct: expressed in transfected cells; host or cells: HEK293
Kind of assay: Human VR1 [3H]RTX binding assay. Conditions: for Ki: [3H]RTX binding, HEK293 membranes; for h Binding % I (1 μM) / inhibition at 1 µM: inhibition of [3H]RTX binding at 1 μM; for inhibition at 1 µM: read-out: h Binding % I (1 μM). How it is done: Compounds of the present invention were tested for their ability to inhibit the binding of tritiated resiniferatoxin ([^3H] RTX) to human VR1 receptors in a [^3H] RTX binding assay, as previously described (Zhang, Sui-Po. Improved ligand binding assays for vanilloid receptors. PCT Int. Appl. (2002), WO 0233411 A1 20020425 AN 2002:315209; Grant, Elfrida R., Dubin, Adrienne E., Zhang, Sui-Po, Zivin, Robert A., Zhong, Zhong Simultaneous intracellular calcium and sodium flux imaging in human VR1-transfected human embryonic kidney cells: a method to resolve ionic dependence of VR1-mediated cell death. J. Pharmacol. Exp. ther., 2002, 300(1), 9-17.) HEK293 cells were transfected with human VR1 and washed with Hank's balanced Salt Solution, dissociated with cell dissociation buffer (Sigma), and then centrifuged at 1000× g for 5 min. Cell pellets were homogenized in cold 20 mM HEPES buffer (pH 7.4), containing 5.8 mM NaCl, 320 mM sucrose, 2 mM MgCl2, 0.75 CaCl2 and 5 mM KCl and centrifuged at 1000× g for 15 min. The resultant supernate was then centrifuged at 40000× g for 15 min. The pelleted membranes were stored in a freezer at −80 C.
Approximately 120 μg protein/ml from membranes were incubated with indicated concentrations of [^3H]RTX in 0.5 ml of the HEPES buffer (pH 7.4) containing 0.25 mg/mL fatty acid-free bovine serum albumin at 37 C for 60 min. After cooling the reaction mixture to 4 C, 0.1 mg (x-acid glycoprotein was added to each sample, which was incubated at 4 C for 15 min and then centrifuged at 18500× g for 15 min. The tip of the microcentrifuge tube containing the pellet was cut off. Bound radioactivity was quantified by scintillation counting. Non-specific binding was assessed in the presence of 200 nM unlabeled resiniferatoxin.
Data were calculated according to the equation: % inhibtion=(total binding−binding)*100/(total binding−non specific binding).
Ki values were calculated based on an average of duplicate measurements using a GraphPad Prism program.

Assay [2] has as its target T1, human VR1. Kind of assay: Human VR1 functional assay (FLIPR intracellular Ca2+). Type of assay: cell-based. As to conditions: for IC50: antagonism of capsaicin-induced Ca2+ increase, read-out: h IC50; for inhibition at 1 µM: read-out: h % I (1 μM); for inhibition at 5 µM: read-out: h % I (5 μM). Here is the method: The functional activity of the test compounds was determined by measuring changes in intracellular calcium concentration using a Ca^2+-sensitive fluorescent dye and FLIPR™ technology. Increases in Ca^2+ concentration were readily detected upon challenge with capsaicin. HEK293 Cells expressing human VR1 were grown on poly-D-lysine coated 384 well black-walled plates (BD 354663) and 1 day later loaded with Calcium 3 Dye for 35 min at 37 C, 5% CO2 and then for 25 min at room temperature, and subsequently tested for agonist-induced increases in intracellular Ca^2+ levels using FLIPR™ technology. Cells were challenged with test compounds (at varying concentrations, which are indicated in parentheses in the heading of the table below) and intracellular Ca^2+ was measured for 5 min prior to the addition of capsaicin to all wells to achieve a final concentration of eliciting an approximate 80% maximal response ([…]). EC50 or IC50 values were determined from dose-response studies. Curves were generated using the average of quadruplicate wells for each data point.

The mark [3] stands for this setting: inhibition of capsaicin response.

T1 sequence (Q8NER1 whole entry): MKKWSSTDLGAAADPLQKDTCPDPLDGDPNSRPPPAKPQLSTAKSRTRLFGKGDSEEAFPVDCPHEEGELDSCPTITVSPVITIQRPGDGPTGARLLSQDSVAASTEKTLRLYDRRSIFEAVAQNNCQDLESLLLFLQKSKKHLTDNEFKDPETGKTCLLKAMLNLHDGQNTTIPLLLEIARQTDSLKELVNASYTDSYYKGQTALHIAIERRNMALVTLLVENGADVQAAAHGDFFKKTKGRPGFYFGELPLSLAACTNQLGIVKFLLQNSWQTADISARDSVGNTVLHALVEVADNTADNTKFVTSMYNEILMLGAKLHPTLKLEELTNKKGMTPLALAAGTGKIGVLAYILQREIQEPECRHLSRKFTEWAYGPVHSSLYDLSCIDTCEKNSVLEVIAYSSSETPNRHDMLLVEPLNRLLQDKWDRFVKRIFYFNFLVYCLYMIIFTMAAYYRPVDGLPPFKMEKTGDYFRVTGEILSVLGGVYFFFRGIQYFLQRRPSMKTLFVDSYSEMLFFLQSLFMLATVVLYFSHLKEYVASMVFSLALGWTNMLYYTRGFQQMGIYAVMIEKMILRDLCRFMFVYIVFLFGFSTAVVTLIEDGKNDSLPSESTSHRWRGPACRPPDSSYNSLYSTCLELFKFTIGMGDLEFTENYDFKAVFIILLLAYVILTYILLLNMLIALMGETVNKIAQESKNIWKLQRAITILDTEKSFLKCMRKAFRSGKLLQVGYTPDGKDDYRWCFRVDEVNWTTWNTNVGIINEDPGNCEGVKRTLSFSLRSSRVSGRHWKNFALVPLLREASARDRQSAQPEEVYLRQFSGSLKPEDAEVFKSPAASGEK

Regarding `O=C(CCc1ccc(Cl)cc1)Nc1ccc(-n2cnc(Cl)c2Cl)c(C(F)(F)F)c1` [Cpd 231], at human VR1 [1], the Ki is 26.2 nM. Besides, the IC50 at human VR1 [2] is 240 nM. Besides, the inhibition at 1 µM on human VR1 [2] (setting [3]) was 90%. `O=C(CCc1ccc(C(F)(F)F)cc1)Nc1cnc(-c2ccc(CO)cc2)c(C(F)(F)F)c1` [Cpd 225]: on human VR1 [1], the Ki turned out to be 162 nM. Besides, the IC50 at human VR1 [2] was determined as 152 nM. On human VR1 [2] (setting [3]), the inhibition at 5 µM was 100%.

As to `Cc1cc(NC(=O)CCc2ccc(N(C)C3CCCCC3)cc2)cnc1-n1cnc(Cl)c1Cl` [Cpd 232], the Ki on human VR1 [1] came out at 80 nM. For the same molecule, the IC50 at human VR1 [2] came out at 249 nM. Moreover, the inhibition at 1 µM at human VR1 [2] (setting [3]) came out at 99%. For `CN(C)C(=O)c1cccc(-c2cccc(NC(=O)CCc3ccc(C(C)(C)C)cc3)c2)c1` [Cpd 38], the “h Binding % I (1 μM)” value at human VR1 [1] turned out to be 1%. Further, the “h % I (10 μM)” value on human VR1 [2] (inhibition of capsaicin response, 10 μM) stood at 17%.

Molecule `Cc1cc(NC(=O)CCc2ccc(C(C)(C)C)cc2)ccc1-c1ccc(O)cc1` [Cpd 98] showed a Ki at human VR1 [1] of 58 nM. In addition, the IC50 at human VR1 [2] came out at 418 nM. For the same molecule, on human VR1 [2] (setting [3]), the inhibition at 1 µM turned out to be 97% and the inhibition at 5 µM is 102%.

Regarding `CC(C)(C)c1ccc(CCC(=O)Nc2ccc(-c3ccncc3)cc2)cc1` [Cpd 111, 3-(4-tert-butyl-phenyl)-N-(4-pyridin-4-yl-phenyl)-propionamide], at human VR1 [1], the affinity, expressed as Ki, was 168 nM and the inhibition at 1 µM turned out to be 61%. Besides, the Emax at 12 µM on human VR1 [2] (agonist response, 12 μM, read-out: % Response Relative to EC80 of Capsaicin (12 μM)) came to 119%. Also, the EC50 on human VR1 [2] (agonist-induced Ca2+ increase, read-out: h EC50) was 18 nM. Turning to `CC(C)(C)c1ccc(CCC(=O)Nc2ccc(-c3ccncc3)c3cnccc23)cc1` [Cpd 156], on human VR1 [1], the “h Binding % I (1 μM)” value was found to be 33%. Take `CC(C)(C)c1ccc(CCC(=O)Nc2ccc(-c3cccc(C(N)=O)c3)cc2)s1` [Cpd 63]: the “h Binding % I (1 μM)” value at human VR1 [1] turned out to be 1%. Turning to `CC(C)(C)c1ccc(CCC(=O)Nc2ccc(-c3cccc4[nH]ccc34)cc2)cc1` [Cpd 122], on human VR1 [1], the Ki worked out at 335 nM and the inhibition at 1 µM was determined as 64%.

As to `CC(C)(C)c1ccc(CCC(=O)Nc2ccc(-n3cnc(Cl)c3Cl)cc2)cc1` [Cpd 200], the “h Binding % I (1 μM)” value on human VR1 [1] turned out to be 100%. On the same count and under the same terms, the same measure for `CC(C)(C)c1ccc(CCC(=O)Nc2ccc(-c3ccncc3)cc2CO)cc1` [Cpd 140]: 1%; for `CNC(=O)c1cccc(-c2ccc(NC(=O)CCc3ccc(C(C)(C)C)cc3)c(C(=O)O)c2)c1` [Cpd 67]: 1%.

As for `CC(C)(C)c1ccc(CCC(=O)Nc2ccc(-c3ncccn3)cc2)cc1` [Cpd 112], at human VR1 [1], the Ki came out at 216 nM and the inhibition at 1 µM turned out to be 68%.

On to `CC(C)(C)c1ccc(CCC(=O)Nc2ccc(-c3cccc(O)c3)cc2C(=O)O)cc1` [Cpd 68], for which the “h Binding % I (1 μM)” value on human VR1 [1] was determined as 1%. The same measure, in the same setting: the same measure for `CC(C)(C)c1ccc(CCC(=O)Nc2ccc(-c3cccc(CO)c3)cc2)cc1` [Cpd 23]: 40%; for `Cc1cc(C)n(-c2ccc(NC(=O)CCc3ccc(C(C)(C)C)cc3)cc2)n1` [Cpd 196]: 76%. Turning to `CC(C)(C)c1ccc(CCC(=O)Nc2ccc(-c3cccc(C(N)=O)c3)cn2)cc1` [Cpd 124], the “h Binding % I (1 μM)” value on human VR1 [1] turned out to be 1%. The same measure, in the same setting: with `CC(=O)Nc1cccc(-c2ccc(NC(=O)CCc3ccc(C(C)(C)C)s3)cc2)c1` [Cpd 64] the figure was 33%; with `CC(C)(C)c1ccc(CCC(=O)Nc2cccc(-c3cccc(O)c3)n2)cc1` [Cpd 126], 9%. Same read-out and setting: the same measure for `CC(C)(C)c1ccc(CCC(=O)Nc2cccc(-c3cncnc3)c2)cc1` [Cpd 117]: 1%; for `CC(C)(C)c1ccc(CCC(=O)Nc2ccc(-c3cccc(C(N)=O)c3)nc2)cc1` [Cpd 127]: 16%; for `CC(C)(C)c1ccc(CCC(=O)Nc2ccc(-c3cccc(C(N)=O)c3)c(F)c2)cc1` [Cpd 53]: 27%. Still for that read-out and setting: with `Cc1cc(NC(=O)CCc2ccc(C(C)(C)C)cc2)ccc1-c1cccc(C(N)=O)c1` [Cpd 51] the figure was 19%; with `CC(C)(C)c1ccc(CCC(=O)Nc2ccc(-c3c[nH]cn3)cc2)cc1` [Cpd 192], 50%. As for `CC(=O)Nc1cccc(-c2ccc(NC(=O)CCc3ccc(C(C)(C)C)cc3)c(F)c2)c1` [Cpd 56], at human VR1 [1], the “h Binding % I (1 μM)” value is given as 16%.

With `COc1ccc(-c2ccc(NC(=O)CCc3ccc(C(C)(C)C)cc3)cc2)cn1` [Cpd 121], on human VR1 [1], the “h Binding % I (1 μM)” value is recorded as 36%. As for `CC(C)(C)c1ccc(CCC(=O)Nc2cccc(-c3cccnc3)c2)cc1` [Cpd 106], the “h Binding % I (1 μM)” value on human VR1 [1] amounted to 1%. Turning to `O=C(CCc1ccc(C(F)(F)F)cc1)Nc1ccc(-c2ccncc2)c2cnccc12` [Cpd 159], the “h Binding % I (1 μM)” value at human VR1 [1] turned out to be 1%.

On to `CC(C)(C)c1ccc(CCC(=O)Nc2ccc(-c3ccc4cc[nH]c4c3)cc2)cc1` [Cpd 123], for which the “h Binding % I (1 μM)” value on human VR1 [1] turned out to be 39%. Same read-out and setting: the same measure for `CC(C)(C)c1ccc(CCC(=O)Nc2ccc(-c3cccc(C(N)=O)c3)cc2F)cc1` [Cpd 52]: 1%; for `CC(C)(C)c1ccc(CCC(=O)Nc2ccc(-c3ccncc3)c(C(=O)O)c2)cc1` [Cpd 141]: 1%. Same read-out and setting: the same measure for `O=C(CCc1ccc(C(F)(F)F)cc1)Nc1ccc(-c2ccccc2O)nc1` [Cpd 146]: 8%. Same read-out and setting: with `CC(C)(C)c1ccc(CCC(=O)Nc2ccc(-c3cccc(C(N)=O)c3)cc2C(=O)O)cc1` [Cpd 66] the figure was 1%; with `CC(=O)Nc1cccc(-c2ccc(NC(=O)CCc3ccc(C(C)(C)C)cc3)nc2)c1` [Cpd 125], 1%. Consider `CC(C)(C)c1ccc(CCC(=O)Nc2ccc(-c3ccccn3)cc2)cc1` [Cpd 110], for which, at human VR1 [1], the affinity corresponds to a Ki of 11.3 nM and the inhibition at 1 µM came to 97%. For the molecule `CC(C)(C)c1ccc(CCC(=O)Nc2ccc(-c3cccc(C#N)c3)cc2)cc1` [Cpd 25], at human VR1 [1], the Ki is 103 nM and the inhibition at 1 µM was found to be 94%. Turning to `CC(=O)Nc1cccc(-c2ccc(NC(=O)CCc3ccc(C(C)(C)C)cc3)c3ccncc23)c1` [Cpd 154], the “h Binding % I (1 μM)” value on human VR1 [1] turned out to be 15%.

Consider `NC(=O)c1cccc(-c2ccc(NC(=O)/C=C/c3ccc(C(F)(F)F)cc3)cc2)c1` [Cpd 47], for which the “h Binding % I (1 μM)” value at human VR1 [1] is reported as 1%.

As for `CC(C)(C)c1ccc(CCC(=O)Nc2cnc(-c3cccc(C(N)=O)c3)cn2)cc1` [Cpd 131], on human VR1 [1], the “h Binding % I (1 μM)” value is on record as 1%. For the molecule `CC(C)(C)c1ccc(CCC(=O)Nc2ccc(-c3cccc(O)c3)c3cnccc23)cc1` [Cpd 155], the “h Binding % I (1 μM)” value on human VR1 [1] was found to be 89%. Take `COc1cccc(-c2ccc(NC(=O)CCc3ccc(C(C)(C)C)cc3)cc2)c1` [Cpd 27]: at human VR1 [1], affinity was put at a Ki of 846 nM and the inhibition at 1 µM came out at 53%. Turning to `COc1ccc(-c2cccc(NC(=O)CCc3ccc(C(C)(C)C)cc3)c2)cn1` [Cpd 119], at human VR1 [1], the “h Binding % I (1 μM)” value came to 1%. On the same count and under the same terms, with `CC(C)(C)c1ccc(CCC(=O)Nc2ccc(-c3ccncc3)cc2C(=O)O)cc1` [Cpd 139] the figure was 1%. For `CC(C)(C)c1ccc(/C=C/C(=O)Nc2cccc(-c3cccc(C(N)=O)c3)c2)cc1` [Cpd 33], at human VR1 [1], affinity was put at a Ki of 171 nM and the inhibition at 1 µM was 82%. In the case of `Cc1cc(-c2cccc(C(N)=O)c2)ccc1NC(=O)CCc1ccc(C(C)(C)C)cc1` [Cpd 50], the “h Binding % I (1 μM)” value on human VR1 [1] turned out to be 11%. For `CC(C)(C)c1ccc(CCC(=O)Nc2ccc(-c3cccc(CO)c3)nc2)cc1` [Cpd 134], the “h Binding % I (1 μM)” value at human VR1 [1] worked out at 25%. Turning to `CC(C)(C)c1ccc(CCC(=O)Nc2ccc(-n3ccnc3)cc2)cc1` [Cpd 261], the Ki on human VR1 [1] amounted to 311 nM.

For orientation: Ki means the equilibrium dissociation constant of an inhibitor or competing ligand from its target. Lower therefore signals tighter binding. One may read the IC50 as the midpoint of a concentration-inhibition curve. A word on the EC50: it is the concentration that produces a half-maximal response.
